The target in assay [1] is T1, DGKζ (Homo sapiens, UniProt Q13574).
T1 construct: purchased Carna 12-110
Nature of the assay: DGKζ biochemical assay (ADP-Glo). The conditions noted are these: read-out: DGK ζ IC50. For orientation: ADP-Glo first removes unused ATP, then detects ADP through luciferase.

In assay [2] the target is DGKα (Homo sapiens, UniProt P23743). The assay can be described thus: DGKα biochemical assay (ADP-Glo). The conditions noted are these: read-out: DGK α IC50. The gist of the method: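 ADP-Glo kinase assay using OAG/PS (1:2) lipid substrate, sonicated, in HEPES pH 7.0 buffer with MgCl2, CaCl2, DTT, BSA, Triton X-100. Enzyme preincubated with compound 30 min at RT; substrate with ATP (DGKα: 400 μM) added, 45 min RT. Luminescence read; % inhibition vs DMSO and no-enzyme controls.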
DGKα, sequence (P23743 whole entry): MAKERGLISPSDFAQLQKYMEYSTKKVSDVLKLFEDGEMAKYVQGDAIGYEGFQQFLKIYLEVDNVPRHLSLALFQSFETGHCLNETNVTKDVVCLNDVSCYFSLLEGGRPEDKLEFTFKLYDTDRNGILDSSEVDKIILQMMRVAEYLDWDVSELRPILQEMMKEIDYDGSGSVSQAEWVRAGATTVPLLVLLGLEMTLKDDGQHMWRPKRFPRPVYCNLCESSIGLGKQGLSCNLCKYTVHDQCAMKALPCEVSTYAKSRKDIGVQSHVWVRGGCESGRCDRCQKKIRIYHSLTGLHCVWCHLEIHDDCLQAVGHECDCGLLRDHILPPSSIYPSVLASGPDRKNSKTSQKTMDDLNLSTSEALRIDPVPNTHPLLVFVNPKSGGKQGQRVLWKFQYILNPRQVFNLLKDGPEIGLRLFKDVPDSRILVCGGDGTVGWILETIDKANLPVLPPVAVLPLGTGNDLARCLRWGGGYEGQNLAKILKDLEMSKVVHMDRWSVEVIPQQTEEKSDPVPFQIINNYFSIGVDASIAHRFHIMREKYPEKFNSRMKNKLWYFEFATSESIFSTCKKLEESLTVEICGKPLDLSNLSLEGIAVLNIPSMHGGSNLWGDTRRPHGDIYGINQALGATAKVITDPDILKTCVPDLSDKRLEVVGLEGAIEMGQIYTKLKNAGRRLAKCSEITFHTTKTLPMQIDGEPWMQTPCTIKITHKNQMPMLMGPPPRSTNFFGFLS

pIC50: −log10 of the molar value. Bounds are passed on as bounds.

T1 sequence (Q13574 1-929 isoform Q13574-4): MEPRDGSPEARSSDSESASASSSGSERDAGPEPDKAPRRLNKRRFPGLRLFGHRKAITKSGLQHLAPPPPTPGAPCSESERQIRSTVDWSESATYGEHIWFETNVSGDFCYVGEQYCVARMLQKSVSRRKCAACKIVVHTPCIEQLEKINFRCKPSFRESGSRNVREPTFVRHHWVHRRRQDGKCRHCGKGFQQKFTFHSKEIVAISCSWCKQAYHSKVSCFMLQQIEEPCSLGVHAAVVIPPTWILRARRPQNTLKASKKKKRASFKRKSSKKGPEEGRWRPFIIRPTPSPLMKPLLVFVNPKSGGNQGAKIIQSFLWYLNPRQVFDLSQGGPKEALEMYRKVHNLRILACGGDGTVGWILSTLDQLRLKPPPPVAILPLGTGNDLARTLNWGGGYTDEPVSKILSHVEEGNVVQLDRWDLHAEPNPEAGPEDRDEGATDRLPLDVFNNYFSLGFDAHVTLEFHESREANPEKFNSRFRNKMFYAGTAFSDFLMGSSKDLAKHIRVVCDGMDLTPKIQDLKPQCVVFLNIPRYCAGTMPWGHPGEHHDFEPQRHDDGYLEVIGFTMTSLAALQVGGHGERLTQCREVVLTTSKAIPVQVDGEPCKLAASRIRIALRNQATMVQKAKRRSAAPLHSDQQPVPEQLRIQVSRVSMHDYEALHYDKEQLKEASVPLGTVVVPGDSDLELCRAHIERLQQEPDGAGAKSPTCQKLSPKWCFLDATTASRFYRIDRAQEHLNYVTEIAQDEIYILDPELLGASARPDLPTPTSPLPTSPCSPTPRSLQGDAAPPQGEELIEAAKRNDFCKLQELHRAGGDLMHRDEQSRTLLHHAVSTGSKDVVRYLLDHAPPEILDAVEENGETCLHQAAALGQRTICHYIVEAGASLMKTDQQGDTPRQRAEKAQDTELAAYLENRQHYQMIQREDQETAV

In the case of `Cn1c(=O)c(F)c(N(C)[C@H]2CC[C@@H](N(CC3COCCO3)c3ccc(F)cc3F)CC2)c2nc(C#N)ccc21` (stereo partly drawn) [Example 205, cis-8-((-4-(((1,4-dioxan-2-yl)methyl)(2,4-difluorophenyl)amino)cyclohexyl)(methyl)amino)-7-fluoro-5-methyl-6-oxo-5,6-dihydro-1,5-naphthyridine-2-carbonitrile], the negative-log IC50 (pIC50) in assay [1] and in assay [2] was 7.00 to 8.00 each time.

`COc1cc(N(CC2CC2)[C@H]2CC[C@H](N(C)c3c(C#N)c(=O)n(C)c4ccc(Cl)nc34)CC2)ccc1F` [Example 39, trans-6-chloro-4-((4-((cyclopropylmethyl)(4-fluoro-3-methoxyphenyl)amino)cyclohexyl)(methyl)amino)-1-methyl-2-oxo-1,2-dihydro-1,5-naphthyridine-3-carbonitrile]: the pIC50 was 6.00 to 7.00 in assay [1] and 7.00 to 8.00 in assay [2].

Consider `Cn1c(=O)c(C#N)c(N(C)[C@H]2CC[C@@H](N(CC3CCC3)c3ccc4c(c3)OCO4)CC2)c2nc(C#N)ccc21` [Example 97], for which the pIC50 in assay [1] is 7.00 to 8.00; in assay [2] it was above 8.00.

Regarding `COc1cc(N(CC2CC2)[C@H]2CC[C@H](N(C)c3cc(=O)n(C)c4ccc(C#N)nc34)CC2)ccc1F` [Example 36, trans-8-((4-((cyclopropylmethyl)(4-fluoro-3-methoxyphenyl)amino)cyclohexyl)(methyl)amino)-5-methyl-6-oxo-5,6-dihydro-1,5-naphthyridine-2-carbonitrile], the pIC50 in assay [1] and in assay [2] was at most 6.00 in each case.

`Cn1c(=O)c(C#N)c(N(C)[C@H]2CC[C@H](N(c3ccccc3O)C3CC3)CC2)c2nc(Cl)ccc21` [Example 3D, 6-Chloro-4-((trans-4-(cyclopropyl(2-hydroxyphenyl)amino)cyclohexyl)(methyl)amino)-1-methyl-2-oxo-1,2-dihydro-1,5-naphthyridine-3-carbonitrile]: the pIC50 in assay [1] is 6.00 to 7.00; in assay [2], 7.00 to 8.00.

Regarding `Cn1c(=O)c(C#N)c(N(C)[C@H]2CC[C@@H](N(C[C@H]3CCCOC3)c3ccc4c(c3)OCO4)CC2)c2nc(C#N)ccc21` [Example 143, cis-8-((-4-(benzo[d][1,3]dioxol-5-yl(((R)-tetrahydro-2H-pyran-3-yl)methyl)amino)cyclohexyl)(methyl)amino)-5-methyl-6-oxo-5,6-dihydro-1,5-naphthyridine-2,7-dicarbonitrile], the values for the pIC50 in assay [1] and in assay [2] were 7.00 to 8.00 and above 8.00, respectively.

Consider `Cc1cc(F)ccc1N(CC1CCC1)[C@H]1CC[C@H](N(C)c2c(C#N)c(=O)n(C)c3ccc(C#N)nc23)CC1` [Example 106, trans-8-((4-((cyclobutylmethyl)(4-fluoro-2-methylphenyl)amino)cyclohexyl)(methyl)amino)-5-methyl-6-oxo-5,6-dihydro-1,5-naphthyridine-2,7-dicarbonitrile], for which the pIC50 in assay [1] and in assay [2] was 6.00 to 7.00 throughout.

On to `Cn1c(=O)c(C#N)c(N(C)[C@H]2CC[C@H](N(CC3CC3)c3ccc(F)c(OC(F)F)c3)CC2)c2nc(Cl)ccc21` [Example 96], for which the values for the negative logarithm of the IC50 (pIC50) in assay [1] and in assay [2] were at most 6.00 and above 8.00, respectively.

Take `Cn1c(=O)cc(N[C@H]2CC[C@@H](N(CC3COC3)c3ccccc3)CC2)c2nc(C#N)ccc21` [Example 3Q, cis-5-Methyl-8-((4-((oxetan-3-ylmethyl)(phenyl)amino)cyclohexyl)amino)-6-oxo-5,6-dihydro-1,5-naphthyridine-2-carbonitrile]: the pIC50 in assay [1] was at most 6.00; in assay [2], 6.00 to 7.00.

For the compound `Cn1c(=O)c(C#N)c(N(C)[C@H]2CC[C@H](N(c3ccc(F)cc3O)C3CC3)CC2)c2nc(Cl)ccc21` [Example 3G, trans-6-chloro-4-((4-(cyclopropyl(4-fluoro-2-hydroxyphenyl)amino)cyclohexyl)(methyl)amino)-1-methyl-2-oxo-1,2-dihydro-1,5-naphthyridine-3-carbonitrile], the negative-log IC50 (pIC50) in assay [1] is at most 6.00; in assay [2], 7.00 to 8.00.

As to `Cn1c(=O)c(C#N)c(N(C)[C@H]2CC[C@H](N(c3ccccc3)C3CC3)CC2)c2nc(Cl)ccc21` [Example 3C, trans-6-Chloro-4-((4-(cyclopropyl(phenyl)amino)cyclohexyl)(methyl)amino)-1-methyl-2-oxo-1,2-dihydro-1,5-naphthyridine-3-carbonitrile], the pIC50 was at most 6.00 in assay [1] and 7.00 to 8.00 in assay [2].

Turning to `Cn1c(=O)cc(N(C)[C@H]2CC[C@H](N(c3ccc(F)cc3O)C3CC3)CC2)c2nc(C#N)ccc21` [Example 3X, trans-8-((4-(cyclopropyl(4-fluoro-2-hydroxyphenyl)amino)cyclohexyl)(methyl)amino)-5-methyl-6-oxo-5,6-dihydro-1,5-naphthyridine-2-carbonitrile], the negative logarithm of the IC50 (pIC50) was at most 6.00 in assay [1] and 6.00 to 7.00 in assay [2].

As to `Cn1c(=O)c(C#N)c(N(C)[C@H]2CC[C@@H](N(c3ccc(F)cc3F)C3CC3)CC2)c2nc(Cl)ccc21` [Example 5, cis-6-chloro-4-((-4-(cyclopropyl(2,4-difluorophenyl)amino)cyclohexyl)(methyl)amino)-1-methyl-2-oxo-1,2-dihydro-1,5-naphthyridine-3-carbonitrile], the negative logarithm of the IC50 (pIC50) in assay [1] is at most 6.00; in assay [2], 6.00 to 7.00.

For the compound `Cc1cc(F)ccc1N(C[C@@H]1CCOC1)[C@H]1CC[C@H](N(C)c2c(C#N)c(=O)n(C)c3ccc(C#N)nc23)CC1` [Example 166, trans-8-((-4-((4-fluoro-2-methylphenyl)(((S)-tetrahydrofuran-3-yl)methyl)amino)cyclohexyl) (methyl)amino)-5-methyl-6-oxo-5,6-dihydro-1,5-naphthyridine-2,7-dicarbonitrile], the pIC50 in assay [1] is 6.00 to 7.00; in assay [2] it was at most 6.00.

In the case of `Cc1cc(F)ccc1N(CC1COCCO1)[C@H]1CC[C@H](N(C)c2c(C#N)c(=O)n(C)c3ccc(C#N)nc23)CC1` (stereo partly drawn) [Example 173, trans-8-((4-(((1,4-dioxan-2-yl)methyl)(4-fluoro-2-methylphenyl)amino)cyclohexyl)(methyl)amino)-5-methyl-6-oxo-5,6-dihydro-1,5-naphthyridine-2,7-dicarbonitrile], the negative-log IC50 (pIC50) in assay [1] and in assay [2] was 6.00 to 7.00 in each case.

As for `Cc1cc2c(cc1N(CC1CCC1)[C@H]1CC[C@H](N(C)c3c(C#N)c(=O)n(C)c4ccc(Cl)nc34)CC1)OCO2` [Example 145, trans-6-chloro-4-((4-((cyclobutylmethyl)(6-methylbenzo[d][1,3]dioxol-5-yl)amino)cyclohexyl) (methyl)amino)-1-methyl-2-oxo-1,2-dihydro-1,5-naphthyridine-3-carbonitrile], the negative logarithm of the IC50 (pIC50) in assay [1] and in assay [2] was at most 6.00 each time.

On to `Cn1c(=O)cc(N(C)[C@H]2CC[C@H](N(c3ccccc3)C3CC3)CC2)c2nc(C#N)ccc21` [Example 3T, trans-8-((4-(cyclopropyl(phenyl)amino)cyclohexyl)(methyl)amino)-5-methyl-6-oxo-5,6-dihydro-1,5-naphthyridine-2-carbonitrile], for which the pIC50 in assay [1] and in assay [2] was 6.00 to 7.00 in each case.

On to `Cn1c(=O)c(C#N)c(N(C)[C@H]2CC[C@H](N(CC3CCC3)c3ccc(F)cc3C(F)F)CC2)c2nc(C#N)ccc21` [Example 179, trans-8-((-4-((cyclobutylmethyl)(2-(difluoromethyl)-4-fluorophenyl)amino)cyclohexyl)(methyl)amino)-5-methyl-6-oxo-5,6-dihydro-1,5-naphthyridine-2,7-dicarbonitrile], for which the pIC50 in assay [1] is at most 6.00; in assay [2] it was 7.00 to 8.00.

Turning to `Cn1c(=O)c(C#N)c(N(C)[C@H]2CC[C@@H](N(CC3CC3)c3ccc(F)c(OC4CC4)c3)CC2)c2nc(C#N)ccc21` [Example 123, cis-8-((-4-((3-cyclopropoxy-4-fluorophenyl) (cyclopropylmethyl)amino)cyclohexyl)(methyl)amino)-5-methyl-6-oxo-5,6-dihydro-1,5-naphthyridine-2,7-dicarbonitrile], the pIC50 in assay [1] and in assay [2] was 7.00 to 8.00 in each case.

Turning to `COc1cccc(N(CC2CC2)[C@H]2CC[C@H](N(C)c3cc(=O)n(C)c4ccc(C#N)nc34)CC2)c1` [Example 14, trans-8-((4-((cyclopropylmethyl)(3-methoxyphenyl)amino)cyclohexyl)(methyl)amino)-5-methyl-6-oxo-5,6-dihydro-1,5-naphthyridine-2-carbonitrile], the pIC50 in assay [1] and in assay [2] was at most 6.00 throughout.

For `CC(C)CN(c1ccc(F)cc1)[C@H]1CC[C@@H](N(C)c2cc(=O)n(C)c3ccc(C#N)nc23)CC1` [Example 47, cis-8-((-4-((4-fluorophenyl)(isobutyl)amino)cyclohexyl)(methyl)amino)-5-methyl-6-oxo-5,6-dihydro-1,5-naphthyridine-2-carbonitrile], the pIC50 in assay [1] is at most 6.00; in assay [2], 7.00 to 8.00.

For `COc1cccc(N(CC2CC2)[C@H]2CC[C@H](N(C)c3c(C#N)c(=O)n(C)c4ccc(C#N)nc34)CC2)c1` [Example 29, trans-8-((4-((cyclopropylmethyl)(3-methoxyphenyl)amino)cyclohexyl)(methyl)amino)-5-methyl-6-oxo-5,6-dihydro-1,5-naphthyridine-2,7-dicarbonitrile], the results for the negative logarithm of the IC50 (pIC50) in assay [1] and in assay [2] were at most 6.00 and 6.00 to 7.00, respectively.

Regarding `COc1cc(F)ccc1N(C)[C@H]1CC[C@H](N(C)c2c(C#N)c(=O)n(C)c3ccc(Cl)nc23)CC1` [Example 40, trans-6-chloro-4-((4-((4-fluoro-2-methoxyphenyl) (methyl)amino)cyclohexyl)(methyl)amino)-1-methyl-2-oxo-1,2-dihydro-1,5-naphthyridine-3-carbonitrile], the results for the negative-log IC50 (pIC50) in assay [1] and in assay [2] were at most 6.00 and 7.00 to 8.00, respectively.

Take `CC(C)CN(c1ccc(F)cc1)[C@H]1CC[C@H](N(C)c2cc(=O)n(C)c3ccc(C#N)nc23)CC1` [Example 41, trans-8-((-4-((4-fluorophenyl)(isobutyl)amino)cyclohexyl)(methyl)amino)-5-methyl-6-oxo-5,6-dihydro-1,5-naphthyridine-2-carbonitrile]: the pIC50 in assay [1] and in assay [2] was at most 6.00 throughout.

The pIC50 is the IC50 on a negative log10 scale, so that one unit is a factor of ten.
